Test results published in ChEMBL document CHEMBL5108031, “Novel N-(4-thiocyanatophenyl)-1H-1,2,3-triazole-4-carboxamides exhibit selective cytotoxic activity at nanomolar doses towards human leukemic T-cells” (Eur J Med Chem, 2022).
Active and inactive are the calls of the source. The rule behind the calls is not given here.

Key:
[1] = test system: UO-31; experiment: Antiproliferative activity against human UO-31 cells incubated for 48 hrs and measured by SRB assay; assay type: functional
[2] = test system: Jurkat; experiment: Induction of apoptosis in human Jurkat cells assessed as cell debris at 0.5 uM measured after 24 hrs by Hoechst 33342/propidium iodide staining based fluorescence microscopic analysis; assay type: functional
[3] = test system: Jurkat; experiment: Antiproliferative activity against human Jurkat cells incubated for 72 hrs and measured by MTT assay; assay type: functional
[4] = test system: NCI-H460; experiment: Antiproliferative activity against human NCI-H460 cells assessed as relative cell growth at 10 uM incubated for 48 hrs and measured by SRB assay; assay type: functional; settings: read-out: Activity
[5] = test system: Jurkat; experiment: Induction of DNA damage in human Jurkat cells assessed as tail DNA at 0.5 uM measured after 24 hrs by comet assay; assay type: functional
[6] = test system: LOX IMVI; experiment: Antiproliferative activity against human LOX IMVI cells assessed as relative cell growth at 10 uM incubated for 48 hrs and measured by SRB assay; assay type: functional; settings: read-out: Activity
[7] = test system: K562; experiment: Antiproliferative activity against human K562 cells assessed as relative cell growth at 10 uM incubated for 48 hrs and measured by SRB assay; assay type: functional; settings: read-out: Activity
[8] = test system: CCRF-CEM; experiment: Antiproliferative activity against human CCRF-CEM cells assessed as relative cell growth at 10 uM incubated for 48 hrs and measured by SRB assay; assay type: functional; settings: read-out: Activity
[9] = test system: SF-295; experiment: Antiproliferative activity against human SF-295 cells incubated for 48 hrs and measured by SRB assay; assay type: functional
[10] = test system: SF-295; experiment: Antiproliferative activity against human SF-295 cells assessed as relative cell growth at 10 uM incubated for 48 hrs and measured by SRB assay; assay type: functional; settings: read-out: Activity
[11] = test system: Jurkat; experiment: Induction of apoptosis in human Jurkat cells assessed as decrease in mitochondrial membrane potential at 0.5 uM measured after 24 hrs by Rhodamine 123 fluorescence based assay; assay type: functional, cell-based
[12] = test system: BALB/3T3; experiment: Antiproliferative activity against mouse BALB/3T3 cells incubated for 72 hrs and measured by MTT assay; assay type: functional
[13] = test system: MDA-MB-468; experiment: Antiproliferative activity against human MDA-MB-468 cells assessed as relative cell growth at 10 uM incubated for 48 hrs and measured by SRB assay; assay type: functional; settings: read-out: Activity
[14] = test system: HeLa; experiment: Antiproliferative activity against human HeLa cells incubated for 72 hrs and measured by MTT assay; assay type: functional
[15] = test system: HEK293; experiment: Antiproliferative activity against human HEK293 cells incubated for 72 hrs and measured by MTT assay; assay type: functional
[16] = test system: HL-60(TB); experiment: Antiproliferative activity against human HL-60(TB) cells assessed as relative cell growth at 10 uM incubated for 48 hrs and measured by SRB assay; assay type: functional; settings: read-out: Activity
[17] = test system: MCF7; experiment: Antiproliferative activity against human MCF7 cells incubated for 72 hrs and measured by MTT assay; assay type: functional
[18] = test system: A498; experiment: Antiproliferative activity against human A498 cells assessed as relative cell growth at 10 uM incubated for 48 hrs and measured by SRB assay; assay type: functional; settings: read-out: Activity
[19] = test system: Jurkat; experiment: Induction of apoptosis in human Jurkat cells assessed as appearance of apoptotic bodies at 0.5 uM measured after 24 hrs by Hoechst 33342/propidium iodide staining based fluorescence microscopic analysis; assay type: functional, cell-based
[20] = test system: SR; experiment: Antiproliferative activity against human SR cells assessed as relative cell growth at 10 uM incubated for 48 hrs and measured by SRB assay; assay type: functional; settings: read-out: Activity
[21] = test system: SF-539; experiment: Antiproliferative activity against human SF-539 cells assessed as relative cell growth at 10 uM incubated for 48 hrs and measured by SRB assay; assay type: functional; settings: read-out: Activity
[22] = test system: Jurkat; experiment: Induction of DNA damage in human Jurkat cells assessed as olive tail moment at 0.5 uM measured after 24 hrs by comet assay; assay type: functional
[23] = test system: CAKI-1; experiment: Antiproliferative activity against human CAKI-1 cells assessed as relative cell growth at 10 uM incubated for 48 hrs and measured by SRB assay; assay type: functional; settings: read-out: Activity
[24] = test system: Jurkat; experiment: Induction of apoptosis in human Jurkat cells assessed as condensed chromatin at 0.5 uM measured after 24 hrs by Hoechst 33342/propidium iodide staining based fluorescence microscopic analysis; assay type: functional, cell-based
[25] = test system: THP-1; experiment: Antiproliferative activity against human THP-1 cells incubated for 72 hrs and measured by MTT assay; assay type: functional
[26] = test system: HL-60(TB); experiment: Antiproliferative activity against human HL-60(TB) cells incubated for 48 hrs and measured by SRB assay; assay type: functional
[27] = test system: LOX IMVI; experiment: Antiproliferative activity against human LOX IMVI cells incubated for 48 hrs and measured by SRB assay; assay type: functional
[28] = read-out: LC50 (the source's name)

## Cc1c(C(=O)Nc2ccc(SC#N)cc2)nnn1-c1ccc(C(C)C)cc1
[1]
  GI50: 2880 nM
  TGI: 15.5 µM
[1]; [28]
  CC50: > 100 µM
[2]
  Activity: Active
[3]
  GI50: 690 nM
[4]
  growth at 10 µM: 13.7%
[5]
  Activity: 8.5%
[6]
  growth at 10 µM: -53.1%
[7]
  growth at 10 µM: 10.3%
[8]
  growth at 10 µM: -13.3%
[9]
  GI50: 2710 nM
  TGI: 9.79 µM
[9]; [28]
  CC50: > 100 µM
[10]
  growth at 10 µM: 4.89%
[11]
  Activity: Active
[12]
  GI50: > 100 µM
[13]
  growth at 10 µM: 80.1%
[14]
  GI50: > 100 µM
[15]
  GI50: > 100 µM
[16]
  growth at 10 µM: 8.6%
[17]
  GI50: > 100 µM
[18]
  growth at 10 µM: 93.6%
[19]
  Activity: Active
[20]
  growth at 10 µM: -19.9%
[21]
  growth at 10 µM: 2.96%
[22]
  Activity: 1.3
[23]
  growth at 10 µM: -53.2%
[24]
  Activity: Active
[25]
  GI50: > 100 µM
[26]
  GI50: 2800 nM
  TGI: 11.5 µM
[26]; [28]
  CC50: > 100 µM
[27]
  GI50: 150 nM
  TGI: 1120 nM
[27]; [28]
  CC50: 4.48 µM
